Literature values in patent US20040023948A1, “Fast-dispersing dosage form containing 5-HT1 agonists” (priority 1997, published 2004).

Settings: Vogel conflict test in rats; Gammans et al. 1986

For `c1cnc(N2CCNCC2)nc1` [Example 1-PP, 1-pyrimidinylpiperazine], the “activity relative to unchanged buspirone” value is listed as ≤ 20%.
